Data reported in article PMC9944496 (Food Chemistry: X, 2023).

Target: T1, AbXOD (Acinetobacter baumannii xanthine oxidase; "wild-type" = AbXDH Y351V) (Acinetobacter baumannii, UniProt A0A0U3AJU6)
T1 construct: gene xdhB
Settings: 50 mmol/L Tris/HCl pH 8.5, 40 °C; apparent Km; paper's wild-type carries Y351V in A subunit; substrate inhibition constant; second site

## O=c1[nH]c(=O)c2[nH]cnc2[nH]1 [xanthine]
  Ki: 21.11 mM
